Here are results for three compounds from article PMC11813358 (Journal of Microbiology and Biotechnology, 2024).

Numbering of substitutions follows the chain as printed. Where “and” joins values, the source holds several entries; their conditions need not be identical. Equal entries are not always repeated. Entries after “also recorded” stand apart in the source; their conditions may differ.

Assay type in all cases: cell-based
Experiment [1] has as its target T1, Human 5-hydroxytryptamine receptor 3A subtype (wild-type 5-HT3A receptor) (Homo sapiens, UniProt P46098).
T1 construct: host or cells: Xenopus laevis oocytes injected with cRNA
T1 sequence (P46098 24-478): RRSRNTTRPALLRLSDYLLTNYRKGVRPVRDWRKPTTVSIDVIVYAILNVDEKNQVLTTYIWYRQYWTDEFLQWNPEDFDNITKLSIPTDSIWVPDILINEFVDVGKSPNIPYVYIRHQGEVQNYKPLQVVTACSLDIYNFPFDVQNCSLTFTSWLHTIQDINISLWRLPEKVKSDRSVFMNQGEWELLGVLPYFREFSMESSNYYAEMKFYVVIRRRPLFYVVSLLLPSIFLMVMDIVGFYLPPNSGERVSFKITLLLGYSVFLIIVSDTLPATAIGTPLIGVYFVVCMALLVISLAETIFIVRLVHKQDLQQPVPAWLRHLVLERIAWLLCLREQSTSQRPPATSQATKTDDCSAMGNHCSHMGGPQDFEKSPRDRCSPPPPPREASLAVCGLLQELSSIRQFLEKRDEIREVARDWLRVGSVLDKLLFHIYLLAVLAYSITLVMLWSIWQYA
Nature of the experiment: Two-electrode voltage clamp of 5-HT-induced inward current (I5-HT) in Xenopus oocytes expressing wild-type 5-HT3A receptor. The settings on record: for Imax of 5-HT concentration-response: normalized to maximum 5-HT current. As for the experimental part: (§1) The experimental procedure follows the approach outlined in the previous study, but is summarized briefly as follows. The plasmid containing the cDNAs for the 5-HT3A receptor was digested with Xho I restriction enzymes to linearize the cDNAs, which were then transcribed into cRNA using the Ambion mMESSAGE mMACHINE transcription kit with T7 RNA polymerase (Thermo Fisher Scientific Inc., USA). After transcription, the cRNA was dissolved in nuclease-free water, and its size and concentration were assessed via electrophoresis and spectrophotometry (DeNovix Inc., USA). The cRNA was aliquoted to a concentration of 1 μg/μl for storage at -80°C. Specific mutations were introduced into the 5-HT3A receptor using the QuickChange site-directed mutagenesis kit (Agilent Technologies Inc., USA) and PCR. The correctness of the mutations was verified by sequencing the final mutated DNA (CosmoGenetech Co., Republic of Korea).
(§2) The study utilized female Xenopus laevis frogs that were kept according to institutional protocols (CNU IACUC-YB-2016-07, July 2016), requiring a stable temperature of around 20°C and a 12-h light-dark cycle. Frog care adhered to standards from the Korean Xenopus Resource Center for Research (KXRCR000001). Anesthesia was induced by placing the frogs on ice, after which a small abdominal incision was made to extract oocytes, which were isolated using OR2 buffer (containing 82.5 mM NaCl, 2 mM KCl, 1 mM MgCl2, and 5 mM HEPES, pH 7.5) with collagenase. After rinsing with ND96 buffer (which includes 96 mM NaCl, 2 mM KCl, 1 mM MgCl2, 1.8 mM CaCl2, and 5 mM HEPES, pH 7.5), stage V-VI oocytes were selected and incubated at 18°C with ND96 incubation buffer containing sodium pyruvate and gentamicin for 2 to 3 days. Finally, 40 ng of 5HT3A cRNA was injected into each oocyte using a Nanoject automatic oocyte injector.
(§3) Two to three days post-RNA injection, the expression of the 5-HT3A protein in the oocytes was verified using a two-electrode oocyte clamp (OC-725C, Warner Instruments, LLC, USA). An agar bridge facilitated electrical connections, while ND96 buffer flowed continuously into the net chamber at 2 ml/min. Two glass microelectrodes filled with 3 M KCl (0.2 MΩ resistance) accessed the oocytes. To analyze the current-voltage relationship, voltages from −80 to +50 mV were applied, maintaining a holding potential of −80 mV. Current data were collected with a Digidata 1550 series device and analyzed using pCLAMP 10 software (Molecular Devices LLC, USA).
(§4) The Hill equation was used for graph fitting in OriginPro 7.0, as detailed below:
(§5) y = Vmin + (Vmax − Vmin) * [x]^n/([IC50]^n + [x]^n)
In this formula, Vmax and Vmin represent the highest and lowest current values, respectively. […] The variable x signifies the concentration of these compounds, while n corresponds to the Hill coefficient.
(Two-electrode voltage clamp holds a large cell at a set potential and records current.)

The target of experiment [2] is T2, L260A mutant 5-HT3A receptor (Homo sapiens, UniProt P46098, L282A).
T2 construct: expressed in transfected cells; host or cells: Xenopus laevis oocytes injected with cRNA
T2 sequence (P46098 24-478 L282A): T1 sequence (P46098 24-478) with L259A
Nature of the experiment: Two-electrode voltage clamp of I5-HT in oocytes expressing L260A mutant 5-HT3A receptor. The following applies: 100 μM 5-HT. The protocol: as §1
as §2, with “Finally, 40 ng of 5HT3A cRNA was injected into each oocyte using a Nanoject automatic oocyte injector.” left out
(§6) Two to three days post-RNA injection, the expression of the 5-HT3A protein in the oocytes was verified using a two-electrode oocyte clamp (OC-725C, Warner Instruments, LLC, USA). […] Current data were collected with a Digidata 1550 series device and analyzed using pCLAMP 10 software (Molecular Devices LLC, USA). […]

Experiment [3] addresses T3, V264A mutant 5-HT3A receptor (Homo sapiens, UniProt P46098, V286A).
T3 construct: expressed in transfected cells; host or cells: Xenopus laevis oocytes injected with cRNA
T3 sequence (P46098 24-478 V286A): T1 sequence (P46098 24-478) with V263A
Nature of the experiment: Two-electrode voltage clamp of I5-HT in oocytes expressing V264A mutant 5-HT3A receptor. The settings on record: 100 μM 5-HT. As for the experimental part: as §1
as §2, with “Finally, 40 ng of 5HT3A cRNA was injected into each oocyte using a Nanoject automatic oocyte injector.” left out
as §6

Experiment [4] deals with T4, double mutant (L260A + V264A) 5-HT3A receptor (Homo sapiens, UniProt P46098, L282A/V286A).
T4 construct: expressed in transfected cells; host or cells: Xenopus laevis oocytes injected with cRNA
T4 sequence (P46098 24-478 L282A/V286A): T1 sequence (P46098 24-478) with L259A, V263A
Nature of the experiment: Two-electrode voltage clamp of I5-HT in oocytes expressing double mutant (L260A/V264A) 5-HT3A receptor. The following applies: for Inhibitory effect of MDL 72222 on double mutant: 0.5 μM MDL 72222. As for the experimental part:
as §1, §2, §3, §4, §5
In this formula, Vmax and Vmin represent the highest and lowest current values, respectively. […]

[5] abbreviates: 5-HT + 3 μM nicergoline, −80 mV.
The mark [6] stands for this setting: 5-HT + 30 μM nicergoline, −80 mV.
Where [7] appears, read: wild type, co-treatment with 100 μM 5-HT, −80 mV.
Where [8] appears, read: −80 mV, unit not printed in Table 3, taken.

As usually defined, the IC50 is the concentration that gives 50% inhibition.

With `CO[C@]12C[C@@H](COC(=O)c3cncc(Br)c3)CN(C)[C@@H]1Cc1cn(C)c3cccc2c13` [nicergoline], the “5-HT current when 5-HT applied immediately following nicergoline, % of the initial (baseline) current” value in experiment [1] (30 μM nicergoline applied alone, then 100 μM 5-HT at 0 sec washout) worked out at 56.2 ± 10.9%. Besides, the “Imax of 5-HT concentration-response” value in experiment [1] (setting [5]) is 70.6 ± 2.9; in experiment [1] (setting [6]), 45.8 ± 8.6. Further, the “nH of 5-HT concentration-response” value is given as 1.3 ± 0.4 in experiment [1] (setting [5]) and 1.2 ± 0.3 in experiment [1] (setting [6]). Moreover, in experiment [1] (5-HT concentration-response in presence of 3 and 30 μM nicergoline), the “Mode of antagonism versus 5-HT” value is reported as “non-competitive”. Further, the concentration for half-maximal inhibition (IC50) in experiment [1] (wild type, co-treatment with 100 μM 5-HT, holding potential −80 mV) came out at 7.7 ± 0.9 µM; in experiment [2] (setting [8]) it was 57.4 ± 5.6 µM; in experiment [3] (setting [8]), 54.7 ± 5 µM. Further, the “Hill coefficient (nH) of inhibition” value in experiment [1] (setting [7]) was 1.4 ± 0.2. The “Maximum inhibition of I5-HT” value in experiment [1] (setting [7]) is 91.1 ± 3.4%; in experiment [1] (wild type, co-treatment with 100 μM 5-HT, −80 mV, listed as Nicergoline), “approximately 91%”; in experiment [2] (−80 mV), 51% and 51.9 ± 2.9%; in experiment [3] (−80 mV), 24% and 24.1 ± 0.8%; in experiment [4] (L260A + V264A double mutant, 100 μM 5-HT, −80 mV) it was 2.7 ± 1.3%. In addition, the nH is on record as 1.2 ± 0.3 in experiment [2] and 0.8 ± 0.2 in experiment [3]. For the same compound, the “Inhibitory effect of nicergoline on double mutant” value in experiment [4] (100 μM nicergoline, double mutant (L260A/V264A)) is “absent; also recorded: abolished”.
As to `NCCc1c[nH]c2ccc(O)cc12` [serotonin, 5-hydroxytryptamine], in experiment [1] (Control, 5-HT alone, −80 mV), the “Imax of 5-HT concentration-response” value came out at 101.5 ± 4.6 and the “nH of 5-HT concentration-response” value is 1.2 ± 0.1.
On to `CN1[C@@H]2CC[C@H]1C[C@@H](OC(=O)c1cc(Cl)cc(Cl)c1)C2` [MDL 72222], for which the “Inhibitory effect of MDL 72222 on double mutant” value in experiment [4] (double mutant (L260A/V264A)) is recorded as “strongly inhibited”; in experiment [4] (double mutant (L260A/V264A), listed as MDL72222), “remained unaffected”.
